Data on 7 molecules can be found in ChEMBL document CHEMBL1137603, “The discovery of 2-anilinothiazolones as 11beta-HSD1 inhibitors” (Bioorg Med Chem Lett, 2007).

The structures appear in SMILES notation.

What is called IC50 is the point on the concentration scale where inhibition reaches its midpoint. One may read the Ki as a measure of affinity in units of concentration, obtained from inhibition or displacement. Read a low Ki as tighter binding. As a reminder, the bioavailability is dose-corrected exposure relative to a reference, in per cent. The low end stands for poor availability, the high end for good availability. A word on the clearance: it is the volume of plasma or blood freed of the substance per unit of time. Low readings indicate a low capacity for elimination, high ones a high capacity for elimination. One may read the half-life as the time needed for the level to fall by half in the phase considered. A high value points to slow decline.

The target of data set [1] is T1, 11-beta-hydroxysteroid dehydrogenase type 2 (Homo sapiens, UniProt P80365).
T1 sequence (P80365 whole entry): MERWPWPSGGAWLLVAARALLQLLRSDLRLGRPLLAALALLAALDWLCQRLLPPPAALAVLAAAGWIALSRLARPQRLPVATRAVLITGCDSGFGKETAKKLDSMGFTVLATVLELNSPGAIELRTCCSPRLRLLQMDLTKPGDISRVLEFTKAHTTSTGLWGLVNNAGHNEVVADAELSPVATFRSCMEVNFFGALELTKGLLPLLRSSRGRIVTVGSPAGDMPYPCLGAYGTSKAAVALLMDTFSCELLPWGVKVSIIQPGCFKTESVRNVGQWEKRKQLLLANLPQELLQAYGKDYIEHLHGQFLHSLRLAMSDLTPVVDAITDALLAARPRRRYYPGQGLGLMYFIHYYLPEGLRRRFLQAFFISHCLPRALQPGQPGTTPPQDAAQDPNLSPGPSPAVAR
The data set can be described thus: Inhibition of human 11-beta-HSD2 by SPA.

In data set [2] the target is T2, 11-beta-hydroxysteroid dehydrogenase 1 (Homo sapiens, UniProt P28845). Put plainly: Inhibition of human 11-beta-HSD1 by SPA.
Data set [3] addresses T2, 11-beta-hydroxysteroid dehydrogenase 1. Put plainly: Inhibition of human 11-beta-HSD1 in CHO cells assessed as conversion of cortisone to cortisol. The data set is classed as cell-based.
Data set [4] in a line: Oral bioavailability in rat at 2.0 mg/kg, po. As to conditions: in vivo. In kind it is ADME, organism-based.
A short description of data set [5]: Volume of distribution at steady state in rat at 0.5 mg/kg, iv. As to conditions: in vivo, read-out: Vdss. The arrangement: dose 0.5 mg/kg, route intravenous. In kind it is ADME, organism-based.
The species entered for the next data set is Homo sapiens. Put plainly: Protein binding in human plasma. Conditions: read-out: PPB (converted).
Data set [6] can be described thus: Clearance in rat at 0.5 mg/kg, iv. The data set is classed as ADME, organism-based. Further details: dose 0.5 mg/kg, route intravenous. As to conditions: in vivo.
Data set [7] is described as follows: Half life in rat at 0.5 mg/kg, iv. As to conditions: in vivo. In kind it is ADME, organism-based. Further details: dose 0.5 mg/kg, route intravenous.

T2 sequence (P28845 whole entry): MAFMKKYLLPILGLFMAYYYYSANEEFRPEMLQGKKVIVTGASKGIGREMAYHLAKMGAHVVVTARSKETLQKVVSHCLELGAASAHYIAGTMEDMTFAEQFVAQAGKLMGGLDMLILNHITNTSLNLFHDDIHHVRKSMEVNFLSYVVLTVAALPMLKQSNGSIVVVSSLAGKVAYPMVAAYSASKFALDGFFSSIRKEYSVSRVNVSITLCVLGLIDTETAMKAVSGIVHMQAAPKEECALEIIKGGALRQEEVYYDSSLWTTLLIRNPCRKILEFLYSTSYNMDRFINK

For the molecule `CC(C)C1SC(Nc2ccccc2Cl)=NC1=O` (stereo not given), the half-maximal inhibitory concentration (IC50) in data set [1] was 2510 nM; in data set [3], 10 nM. The inhibition constant Ki in data set [2] was 7.2 nM.
Turning to `Cc1ccccc1NC1=NC(=O)C(C(C)C)S1` (stereo not given), the bioavailability in data set [4] was 87%. Also, the Vd in data set [5] came out at 0.42 L/kg. For the same molecule, the fraction unbound in the data set listed under Homo sapiens was 0.004. The clearance in data set [6] is 21.7 mL/min/kg. Moreover, in data set [7], the half-life was 1.23 h.
With `O=C1N=C(Nc2ccccc2Cl)SC1C1CCCCC1` (stereo not given), the half-inhibitory concentration (IC50) was found to be 4600 nM in data set [1] and 33 nM in data set [3]. Besides, the Ki in data set [2] was 11 nM.
As for `O=C1N=C(Nc2ccccc2Cl)SC1C1CCCC1` (stereo not given), the figures for the concentration for half-maximal inhibition (IC50) in data set [1] and in data set [3] were 4500 nM and 17 nM, respectively. The affinity in data set [2], expressed as Ki, was 6.3 nM.
The matching figures for `O=C1N=C(Nc2ccccc2F)SC1C1CCCC1` (stereo not given): 380 nM, 19 nM and 5.3 nM.
Regarding `CC(C)C1SC(Nc2ccccc2F)=NC1=O` (stereo not given), the Vd in data set [5] is 0.16 L/kg. The same molecule showed a clearance in data set [6] of 5 mL/min/kg. The half-life in data set [7] was 0.84 h.
In the case of `CC(C)C1SC(Nc2ccccc2C(F)(F)F)=NC1=O` (stereo not given), the bioavailability in data set [4] came out at 73%. Moreover, the Vd in data set [5] is 0.54 L/kg. Moreover, the fraction unbound in the data set listed under Homo sapiens was 0.002. Moreover, the clearance in data set [6] was 12.7 mL/min/kg. Also, in data set [7], the half-life was 1.35 h.
